We go through 1 compound from PMC10285648, “iTAG an optimized IMiD-induced degron for targeted protein degradation in human and murine cells” (iScience, 2023).

Assay [1] has as its system N and C-terminally tagged KRAS^[G12V] and EZH2 (DCD23). Description: Flow cytometry of EGFP signal, DCD23-tagged KRAS G12V and EZH2 in HMEC. The format is cell-based, human. The settings on record: 10uM, 4h. An excerpt:
We tagged the proteins with DCD23 constructs, fused either to their N-terminus or C-terminus (Figures 2A and 2B). We stably transduced HMEC cells with these constructs and assessed their degradation. Cellular treatment with all degraders led to a decrease in the EGFP signal of the N and C-terminally tagged KRAS^[G12V] and EZH2 (Figures 2A and 2B).
Figure 2 Degradation of cytoplasmic and nuclear targets using iTAG (A) HMEC cells expressing N-terminally tagged DCD23-EGFP-KRAS^[G12V], DCD23-EGFP-EZH2, DCD23-EGFP-cMYC or their corresponding P2A control were induced with doxycycline for 24h then treated with either DMSO or the different indicated drugs at a concentration of 10uM for 4h. Median EGFP intensity was measured in each condition using flow cytometry and normalized values were represent in the Log2 Fold change relative to the DMSO control. […] Median EGFP intensity was measured in each condition using flow cytometry and normalized values were represent in the Log2 Fold Change relative to the DMSO control. […]
Cells stably transduced with the iTAG tagged constructs were treated with 1 μg/mL of doxycycline for 24h to induce constructs expression. […] EGFP signal was measured using BD LSR II flow cytometer (BD Biosciences). […]

Assay [2] deals with DCD23-EGFP-KRAS^[G12V]. Description: Western blotting for KRAS G12V and p-MEK1(T292) in HMEC. The note with it: 10uM, 48h. The format is cell-based, human. As to the method: Figure 2 Degradation of cytoplasmic and nuclear targets using iTAG (A) HMEC cells expressing N-terminally tagged DCD23-EGFP-KRAS^[G12V], DCD23-EGFP-EZH2, DCD23-EGFP-cMYC or their corresponding P2A control were induced with doxycycline for 24h then treated with either DMSO or the different indicated drugs at a concentration of 10uM for 4h. Median EGFP intensity was measured in each condition using flow cytometry and normalized values were represent in the Log2 Fold change relative to the DMSO control. (B) HMEC cells expressing Dox inducible C-terminally tagged KRAS^[G12V]-EGFP-DCD23, EZH2-EGFP-DCD23 or their corresponding P2A control were induced with doxycycline for 24h then treated with either DMSO or the different indicated drugs at a concentration of 10uM for 4h. Median EGFP intensity was measured in each condition using flow cytometry and normalized values were represent in the Log2 Fold Change relative to the DMSO control. […]
We then analyzed the functional consequences of KRAS^[G12V]-induced degradation. […] Subsequently, we analyzed the functional consequences of KRAS^[G12V]-induced degradation. […]
Cells were lysed with SDS lysis buffer (2% SDS, 10% Glycerol, 50mM Tris pH 6.8) and boiled at 95°C for 30min. Protein concentration was measured using Pierce BCA Protein Assay Kit (ThermoFischer) following manufacturer’s recommendations. […]

Assay [3] relates to Flag-HA-DCD19-EGFP. As to the kind of experiment: Degradation of Flag-HA-DCD19-EGFP in murine cells. The format is cell-based, mouse. The settings on record: 2208L and PyMT, 24 h, western blotting. How it is done: Given the high degradation efficiency of DCD23 in human cells, we sought to test the applicability of this system in murine cells.
The protein lysates were probed for EGFP using western blotting. […] EGFP signal was then measured using flow cytometry. (3 independent experiments, normalized to the control and represented as mean ± SD). […] Data are plotted as Log2 fold change relative to DMSO versus Log10 of p value.

The subject of assay [4] is RBM39, CDK9, MAPK9, HPRT1, SMS, MAVS (tagged). Description: Western blotting, iTAG versus dTAG at 24h on six targets in SUM159. In kind it is cell-based, human. The settings on record: SUM159, 24h. How it is done: Subsequently, we evaluated the extent of degradation induced by the two tagging systems. For this purpose, we tested targets present in different subcellular localizations at a longer time point (24h): RBM39 (-nuclear 59.3kDa-), CDK9 (Cyclin-dependent kinase 9 -nuclear 42.7kDa-), MAPK9 (Mitogen-activated protein kinase 9 -nuclear 48.1 kDa-), HPRT1 (Hypoxanthine Phosphoribosyltransferase 1-cytoplasmic 24.5kDa-), SMS (Spermine synthase –cytoplasmic 41.2kDa-), and MAVS (Mitochondrial antiviral-signaling protein -mitochondrial 56.5kDa-) (Figure S7).

The structures appear in SMILES notation.

`O=C1CC[C@H](N2Cc3c(OCc4ccc(CN5CCOCC5)cc4)cccc3C2=O)C(=O)N1` [CC220, Iberdomide]: in assay [1], the “change of EGFP signal” value is given as “most active degrader”. Moreover, the “MEK1 (T292) phosphorylation after degradation of N-terminally tagged KRAS G12V” value in assay [2] is on record as “concomitant decrease in MEK1 (T292) phosphorylation”. Further, in assay [3], the “degradation of DCD19 tagged EGFP” value is listed as “not degraded”. The “degradation compared with dTAG” value in assay [4] is “more effective degradation of the targets even at low nanomolar CC220 concentrations”.
